# Reference: PubChem BioAssay (NCI)
#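 Following 48 hours of exposure in 96-well plates, responses at five concentrations were used to interpolate endpoints linearly. GI50 is the concentration that inhibits growth by half. The concentration for full growth arrest is given as TGI.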
# How the values were obtained:
# Assay in all cases: NCI anticancer screen, dose series, 48 h
# NCI-H522 lung = test system: NCI-H522 lung
# 786-0 renal = test system: 786-0 renal
# K-562 leukemia = test system: K-562 leukemia
# MDA-MB-231 breast = test system: MDA-MB-231 breast
# M14 melanoma = test system: M14 melanoma
# NCI-H460 lung = test system: NCI-H460 lung
# SW-620 colon = test system: SW-620 colon
# SK-MEL-2 melanoma = test system: SK-MEL-2 melanoma
# UO-31 renal = test system: UO-31 renal
# BT-549 breast = test system: BT-549 breast
# TK-10 renal = test system: TK-10 renal
# SF-539 CNS = test system: SF-539 CNS
# CCRF-CEM leukemia = test system: CCRF-CEM leukemia
# SNB-19 CNS = test system: SNB-19 CNS
# NCI/ADR-RES ovarian = test system: NCI/ADR-RES ovarian
# KM12 colon = test system: KM12 colon
# HT29 colon = test system: HT29 colon
# CAKI-1 renal = test system: CAKI-1 renal
# UACC-62 melanoma = test system: UACC-62 melanoma
# MOLT-4 leukemia = test system: MOLT-4 leukemia
# NCI-H23 lung = test system: NCI-H23 lung
# HS 578T breast = test system: HS 578T breast
# RPMI-8226 leukemia = test system: RPMI-8226 leukemia
# HCT-15 colon = test system: HCT-15 colon
# SK-MEL-28 melanoma = test system: SK-MEL-28 melanoma
# MDA-MB-435 = test system: MDA-MB-435
# IGROV1 ovarian = test system: IGROV1 ovarian
# SNB-75 CNS = test system: SNB-75 CNS
# HCT-116 colon = test system: HCT-116 colon
# SR leukemia = test system: SR leukemia
# SF-268 CNS = test system: SF-268 CNS
# HOP-62 NSCLC = test system: HOP-62 NSCLC
# DU-145 prostate = test system: DU-145 prostate
# SK-OV-3 ovarian = test system: SK-OV-3 ovarian
# PC-3 prostate = test system: PC-3 prostate
# OVCAR-8 ovarian = test system: OVCAR-8 ovarian
# UACC-257 melanoma = test system: UACC-257 melanoma
# SN12C renal = test system: SN12C renal
# NCI-H226 lung = test system: NCI-H226 lung
# HCC-2998 colon = test system: HCC-2998 colon
# LOX IMVI melanoma = test system: LOX IMVI melanoma
# U251 CNS = test system: U251 CNS
# SF-295 CNS = test system: SF-295 CNS
# RXF 393 renal = test system: RXF 393 renal
# OVCAR-5 ovarian = test system: OVCAR-5 ovarian
# SK-MEL-5 melanoma = test system: SK-MEL-5 melanoma
# A549 NSCLC = test system: A549 NSCLC
# HOP-92 NSCLC = test system: HOP-92 NSCLC
# OVCAR-3 ovarian = test system: OVCAR-3 ovarian
# COLO 205 colon = test system: COLO 205 colon
# ACHN renal = test system: ACHN renal
# A498 renal = test system: A498 renal
# MCF7 breast = test system: MCF7 breast
# OVCAR-4 ovarian = test system: OVCAR-4 ovarian
smiles,measurement,setting,value
Oc1cccc(Cn2c(-c3cccc(O)c3O)nc3ccccc32)c1O,GI50,NCI-H522 lung,7.88 µM
same,TGI,NCI-H522 lung,49.1 µM
same,GI50,786-0 renal,1.86 µM
same,TGI,786-0 renal,14.1 µM
same,GI50,K-562 leukemia,5.56 µM
same,TGI,K-562 leukemia,> 100 µM
same,GI50,MDA-MB-231 breast,0.92 µM
same,TGI,MDA-MB-231 breast,7.71 µM
same,GI50,M14 melanoma,3.3 µM
same,TGI,M14 melanoma,15.5 µM
same,GI50,NCI-H460 lung,3.59 µM
same,TGI,NCI-H460 lung,16.3 µM
same,GI50,SW-620 colon,6.82 µM
same,TGI,SW-620 colon,60.1 µM
same,GI50,SK-MEL-2 melanoma,42 µM
same,TGI,SK-MEL-2 melanoma,> 100 µM
same,GI50,UO-31 renal,12.8 µM
same,TGI,UO-31 renal,> 100 µM
same,GI50,BT-549 breast,18.9 µM
same,TGI,BT-549 breast,81.1 µM
same,GI50,TK-10 renal,1.88 µM
same,TGI,TK-10 renal,7.52 µM
same,GI50,SF-539 CNS,9.49 µM
same,TGI,SF-539 CNS,38.4 µM
same,GI50,CCRF-CEM leukemia,7.56 µM
same,TGI,CCRF-CEM leukemia,> 100 µM
same,GI50,SNB-19 CNS,13.8 µM
same,TGI,SNB-19 CNS,> 100 µM
same,GI50,NCI/ADR-RES ovarian,2.34 µM
same,TGI,NCI/ADR-RES ovarian,8.69 µM
same,GI50,KM12 colon,8.62 µM
same,TGI,KM12 colon,30.2 µM
same,GI50,HT29 colon,15.5 µM
same,TGI,HT29 colon,> 100 µM
same,GI50,CAKI-1 renal,2.26 µM
same,TGI,CAKI-1 renal,5.85 µM
same,GI50,UACC-62 melanoma,3.1 µM
same,TGI,UACC-62 melanoma,12.6 µM
same,GI50,MOLT-4 leukemia,3.21 µM
same,TGI,MOLT-4 leukemia,> 100 µM
same,GI50,NCI-H23 lung,3.02 µM
same,TGI,NCI-H23 lung,14.1 µM
same,GI50,HS 578T breast,26.9 µM
same,TGI,HS 578T breast,> 100 µM
same,GI50,RPMI-8226 leukemia,9.69 µM
same,TGI,RPMI-8226 leukemia,> 100 µM
same,GI50,HCT-15 colon,2.08 µM
same,TGI,HCT-15 colon,14.9 µM
same,GI50,SK-MEL-28 melanoma,10.9 µM
same,TGI,SK-MEL-28 melanoma,27.6 µM
same,GI50,MDA-MB-435,2.13 µM
same,TGI,MDA-MB-435,15.3 µM
same,GI50,IGROV1 ovarian,34 µM
same,TGI,IGROV1 ovarian,> 100 µM
same,GI50,SNB-75 CNS,26.2 µM
same,TGI,SNB-75 CNS,> 100 µM
same,GI50,HCT-116 colon,2.24 µM
same,TGI,HCT-116 colon,10.9 µM
same,GI50,SR leukemia,3.42 µM
same,TGI,SR leukemia,> 100 µM
same,GI50,SF-268 CNS,4.74 µM
same,TGI,SF-268 CNS,28.7 µM
same,GI50,HOP-62 NSCLC,3.77 µM
same,TGI,HOP-62 NSCLC,38.7 µM
same,GI50,DU-145 prostate,4.89 µM
same,TGI,DU-145 prostate,20.5 µM
same,GI50,SK-OV-3 ovarian,13.9 µM
same,TGI,SK-OV-3 ovarian,75.4 µM
same,GI50,PC-3 prostate,6.69 µM
same,TGI,PC-3 prostate,34.2 µM
same,GI50,OVCAR-8 ovarian,11.7 µM
same,TGI,OVCAR-8 ovarian,53.1 µM
same,GI50,UACC-257 melanoma,19.3 µM
same,TGI,UACC-257 melanoma,50.1 µM
same,GI50,SN12C renal,3.4 µM
same,TGI,SN12C renal,16.3 µM
same,GI50,NCI-H226 lung,3.95 µM
same,TGI,NCI-H226 lung,21.9 µM
same,GI50,HCC-2998 colon,11 µM
same,TGI,HCC-2998 colon,30 µM
same,GI50,LOX IMVI melanoma,2.84 µM
same,TGI,LOX IMVI melanoma,15.3 µM
same,GI50,U251 CNS,4.44 µM
same,TGI,U251 CNS,26.2 µM
same,GI50,SF-295 CNS,1.88 µM
same,TGI,SF-295 CNS,10.5 µM
same,GI50,RXF 393 renal,5.82 µM
same,TGI,RXF 393 renal,25.4 µM
same,GI50,OVCAR-5 ovarian,10.9 µM
same,TGI,OVCAR-5 ovarian,48.1 µM
same,GI50,SK-MEL-5 melanoma,5.76 µM
same,TGI,SK-MEL-5 melanoma,18.1 µM
same,GI50,A549 NSCLC,14.1 µM
same,TGI,A549 NSCLC,40.9 µM
same,GI50,HOP-92 NSCLC,36.8 µM
same,TGI,HOP-92 NSCLC,> 100 µM
same,GI50,OVCAR-3 ovarian,0.0683 µM
same,TGI,OVCAR-3 ovarian,0.76 µM
same,GI50,COLO 205 colon,11.7 µM
same,TGI,COLO 205 colon,32.2 µM
same,GI50,ACHN renal,2.57 µM
same,TGI,ACHN renal,11.8 µM
same,GI50,A498 renal,17.6 µM
same,TGI,A498 renal,60.4 µM
same,GI50,MCF7 breast,1.44 µM
same,TGI,MCF7 breast,13.8 µM
same,GI50,OVCAR-4 ovarian,5.2 µM
same,TGI,OVCAR-4 ovarian,> 100 µM
